Consider 16 compounds from patent publication US9873680B2 (Gilead Sciences, Inc., priority 2014, dated 2018).

Series [1] is described as follows: Test B: Cytotoxicity Assay. It is filed as cell-based. The settings on record: human, uninfected MT-4 cells, CellTiter-Glo. The method, then: Test B: Cytotoxicity Assay Compound cytotoxicity and the corresponding CC50 values was determined using the same protocol as described in the antiviral assay (Test A) except that uninfected cells were used.
The test system of another series is HIV-IIIb. Nature of the series: Test A: Antiviral Assay in MT4 Cells. The settings on record: for inhibition at 2 µM: 2 μM drug concentration, read-out: Response at 2 μM (percent inhibition of virus-induced cell killing). The series is classed as cell-based, HIV-1. The method, then: Test A: Antiviral Assay in MT4 Cells
MT-4 cells were next mixed with HIV-IIIb at an m.o.i of 0.003 for 1 hour, after which time 35 μL of virus/cell mixture (2000 cells) was immediately added to each well containing 40 μL of diluted compound. The plates were then incubated at 37° C. for 5 days. After 5 days of incubation, 25 μl of 2× concentrated CellTiter-Glo™ Reagent (catalog #G7571, Promega Biosciences, Inc., Madison, Wis.) was added to each well containing MT-4 cells. Cell lysis was carried out by incubating at room temperature for 10 min and then chemiluminescence was read.

Setting [2] is: Human immunodeficiency virus 1, MT4, 120 h, 0.2 μM drug concentration, MT-4 cells infected with HIV-IIIb, 5 days, values normalized to 100%, average over time, read-out: % inhibition at 0.2 μM (percent inhibition of virus-induced cell killing).
Where [3] appears, read: Human immunodeficiency virus 1, IIIB, MT4, 0.2 μM drug concentration, comparison with previously published compounds, read-out: Response at 0.2 μM (percent inhibition of virus-induced cell killing).
[4] abbreviates: Human immunodeficiency virus 1, IIIB, MT4, comparison with previously published compounds.
Where [5] appears, read: Human immunodeficiency virus 1, IIIB, MT4, 120 h, read-out: % inhibition at 0.2 μM (percent inhibition of virus-induced cell killing).

Counter-ions that a name gives are not always drawn. Like-named read-outs stand apart in the source and are kept apart here. Some results are limits rather than exact numbers.

Regarding `O=C(Cn1nc(C(F)F)c2c1C(F)(F)CCC2(F)F)N[C@@H](Cc1cc(F)cc(F)c1)c1nc(C#Cc2cncnc2)ccc1-c1ccc2c(c1)C(=O)NC2` [Compound 1J, (S)-2-(3-(difluoromethyl)-4,4,7,7-tetrafluoro-4,5,6,7-tetrahydro-1H-indazol-1-yl)-N-(2-(3,5-difluorophenyl)-1-(3-(3-oxoisoindolin-5-yl)-6-(pyrimidin-5-ylethynyl)pyridin-2-yl)ethyl)acetamidehydrochloride], the CC50 at 5 days in series [1] was above 53.2 µM. The inhibition at 0.2 µM with HIV-IIIb (setting [2]) is 81%.
As to `O=C(Cn1nc(C(F)F)c2c1C(F)(F)CCC2(F)F)N[C@@H](Cc1cc(F)cc(F)c1)c1ncc(C#CC2CC2)cc1-c1ccc2c(c1)C(=O)NC2` [Compound 2G, (S)—N-(1-(5-(cyclopropylethynyl)-3-(3-oxoisoindolin-5-yl)pyridin-2-yl)-2-(3,5-difluorophenyl)ethyl)-2-(3-(difluoromethyl)-4,4,7,7-tetrafluoro-4,5,6,7-tetrahydro-1H-indazol-1-yl)acetamide], it took 38.4 µM to reach half-maximal cytotoxicity in series [1] (CC50 at 5 days). Moreover, the inhibition at 0.2 µM in the series on HIV-IIIb (setting [3]) and with HIV-IIIb (setting [2]) was 0% in each case. The inhibition at 2 µM in the series with HIV-IIIb (setting [4]) worked out at 6%.
With `Cc1cc2ncn(CC(=O)N[C@@H](Cc3cc(F)cc(F)c3)c3nc(C#CC4(O)CCOCC4)ccc3-c3ccc4n[nH]c(=O)n4c3C)c2cc1C` [Compound 3D, (S)—N-(2-(3,5-difluorophenyl)-1-(6-((4-hydroxytetrahydro-2H-pyran-4-yl)ethynyl)-3-(5-methyl-3-oxo-2,3-dihydro-[1,2,4]triazolo[4,3-a]pyridin-6-yl)pyridin-2-yl)ethyl)-2-(5,6-dimethyl-1H-benzo[d]imidazol-1-yl)acetamide], half-maximal cytotoxicity in series [1] (CC50 at 5 days) was put at 31.6 µM. Moreover, the inhibition at 0.2 µM in the series with HIV-IIIb (setting [2]) came to 91%.
The matching figures for `O=C(Cn1nc(C(F)F)c2c1C(F)(F)CCC2(F)F)N[C@@H](Cc1cc(F)cc(F)c1)c1nc(C#Cc2cnc3[nH]ccc3c2)ccc1-c1cnc2[nH]ccc2c1` [Compound 4C, (S)—N-(1-(6-((1H-pyrrolo[2,3-b]pyridin-5-yl)ethynyl)-3-(1H-pyrrolo[2,3-b]pyridin-5-yl)pyridin-2-yl)-2-(3,5-difluorophenyl)ethyl)-2-(3-(difluoromethyl)-4,4,7,7-tetrafluoro-4,5,6,7-tetrahydro-1H-indazol-1-yl)acetamide]: 1.27 µM and 0%.
Compound `O=C(Cn1nc(C(F)F)c2c1C(F)(F)CCC2(F)F)N[C@@H](Cc1cc(F)cc(F)c1)c1nc(C#Cc2ccc3[nH]c(=O)ccc3c2)ccc1-c1cnc2[nH]ccc2c1` [Compound 5, (S)-2-(3-(difluoromethyl)-4,4,7,7-tetrafluoro-4,5,6,7-tetrahydro-1H-indazol-1-yl)-N-(2-(3,5-difluorophenyl)-1-(6-((2-oxo-1,2-dihydroquinolin-6-yl)ethynyl)-3-(1H-pyrrolo[2,3-b]pyridin-5-yl)pyridin-2-yl)ethyl)acetamide] had a CC50 at 5 days in series [1] above 53.2 µM. In addition, the inhibition at 0.2 µM in the series on HIV-IIIb (setting [2]) was determined as 5%.
The matching figures for `O=C(Cn1nc(C(F)F)c2c1C(F)(F)CCC2(F)F)N[C@@H](Cc1cc(F)cc(F)c1)c1nc(C#Cc2cncnc2)ccc1-c1ccc2c(c1)C(=O)NC21CC1` [Compound 6, (S)-2-(3-(difluoromethyl)-4,4,7,7-tetrafluoro-4,5,6,7-tetrahydro-1H-indazol-1-yl)-N-(2-(3,5-difluorophenyl)-1-(3-(3′-oxospiro[cyclopropane-1,1′-isoindolin]-5′-yl)-6-(pyrimidin-5-ylethynyl)pyridin-2-yl)ethyl)acetamide]: 1.66 µM and 0%.
Consider `O=C(Cn1nc(C(F)F)c2c1C(F)(F)CCC2(F)F)N[C@@H](Cc1cc(F)cc(F)c1)c1nc(C#Cc2cncnc2)ncc1-c1ccc2c(c1)C(=O)NC2` [Compound 7H], for which, in series [1], half-maximal cytotoxicity (CC50 at 5 days) was put at 0.534 µM. Further, the inhibition at 0.2 µM in the series on HIV-IIIb (setting [5]) turned out to be 94%.
In series [1], `O=C(Cn1nc(C(F)F)c2c1C(F)(F)CCC2(F)F)N[C@@H](Cc1cc(F)cc(F)c1)c1nc(C#Cc2ccccc2)ncc1-c1ccc2c(c1)C(=O)NC2` [Compound 8, (S)-2-(3-(difluoromethyl)-4,4,7,7-tetrafluoro-4,5,6,7-tetrahydro-1H-indazol-1-yl)-N-(2-(3,5-difluorophenyl)-1-(5-(3-oxoisoindolin-5-yl)-2-(phenylethynyl)pyrimidin-4-yl)ethyl)acetamide] registered a CC50 at 5 days above 53.2 µM. Moreover, the inhibition at 0.2 µM in the series with HIV-IIIb (setting [5]) turned out to be 102%.
Compound `N#Cc1ccc(C#Cc2ccc(-c3ccc4c(c3)C(=O)NC4)c([C@H](Cc3cc(F)cc(F)c3)NC(=O)Cn3nc(C(F)(F)F)c4c3C(F)(F)[C@@H]3C[C@H]43)n2)cc1` [Compound 9, N—((S)-1-(6-((4-cyanophenyl)ethynyl)-3-(3-oxoisoindolin-5-yl)pyridin-2-yl)-2-(3,5-difluorophenyl)ethyl)-2-((3bS,4aR)-5,5-difluoro-3-(trifluromethyl)-3b,4,4a,5-tetrahydro-1H-cyclopropa[3,4]cyclopenta[1,2-c]pyrazol-1-yl)acetamide] gave a CC50 at 5 days in series [1] above 53.2 µM. Also, the inhibition at 0.2 µM in the series with HIV-IIIb (setting [2]) worked out at 25%.
Take `COc1ccc(C#Cc2ccc(-c3ccc4c(c3)C(=O)NC4)c([C@H](Cc3cc(F)cc(F)c3)NC(=O)Cn3nc(C(F)(F)F)c4c3C(F)(F)[C@@H]3C[C@H]43)n2)cn1` [Compound 10C, 2-((3bS,4aR)-5,5-difluoro-3-(trifluoromethyl)-3b,4,4a,5-tetrahydro-1H-cyclopropa[3,4]cyclopenta[1,2-c]pyrazol-1-yl)-N—((S)-2-(3,5-difluorophenyl)-1-(6-((6-methoxypyridin-3-yl)ethynyl)-3-(3-oxoisoindolin-5-yl)pyridin-2-yl)ethyl)acetamide]: in series [1], the CC50 at 5 days was above 51.9 µM. In addition, in the series on HIV-IIIb (setting [2]), the inhibition at 0.2 µM came out at 21%.
The compound `Cc1cc(C#Cc2ncc(-c3ccc4c(c3)C(=O)NC4)c([C@H](Cc3cc(F)cc(F)c3)NC(=O)Cn3nc(C(F)F)c4c3C(F)(F)CCC4(F)F)n2)ccn1` [Compound 11, (S)-2-(3-(difluoromethyl)-4,4,7,7-tetrafluoro-4,5,6,7-tetrahydro-1H-indazol-1-yl)-N-(2-(3,5-difluorophenyl)-1-(2-((2-methylpyridin-4-yl)ethynyl)-5-(3-oxoisoindolin-5-yl)pyrimidin-4-yl)ethyl)acetamide] gave a half-maximal cytotoxic concentration (CC50) at 5 days in series [1] of 0.761 µM. In the series with HIV-IIIb (setting [2]), the inhibition at 0.2 µM was 69%.
Take `O=C(Cn1nc(C(F)(F)F)c2c1C(F)(F)[C@@H]1C[C@H]21)N[C@@H](Cc1cc(F)cc(F)c1)c1nc(C#Cc2ccc(=O)[nH]c2)ccc1-c1ccc2c(c1)C(=O)NC2` [Compound 12, 2-((3bS,4aR)-5,5-difluoro-3-(trifluoromethyl)-3b,4,4a,5-tetrahydro-1H-cyclopropa[3,4]cyclopenta[1,2-c]pyrazol-1-yl)-N—((S)-2-(3,5-difluorophenyl)-1-(6-((6-oxo-1,6-dihydropyridin-3-yl)ethynyl)-3-(3-oxoisoindolin-5-yl)pyridin-2-yl)ethyl)acetamide]: in series [1], the cytotoxic concentration (CC50) at 5 days is 7.7 µM. The inhibition at 0.2 µM in the series with HIV-IIIb (setting [2]) was 70%.
Turning to `CC(C)(C)OC(=O)N1CCCC1c1ncc(C#Cc2ccc(-c3ccc4c(c3)C(=O)NC4)c([C@H](Cc3cc(F)cc(F)c3)NC(=O)Cn3nc(C(F)(F)F)c4c3C(F)(F)[C@@H]3C[C@H]43)n2)[nH]1` (stereo partly drawn) [Compound 13C, tert-butyl 2-(5-((6-((S)-1-(2-((3bS,4aR)-5,5-difluoro-3-(trifluoromethyl)-3b,4,4a,5-tetrahydro-1H-cyclopropa[3,4]cyclopenta[1,2-c]pyrazol-1-yl)acetamido)-2-(3,5-difluorophenyl)ethyl)-5-(3-oxoisoindolin-5-yl)pyridin-2-yl)ethynyl)-1H-imidazol-2-yl)pyrrolidine-1-carboxylate], the CC50 at 5 days in series [1] was above 53.2 µM. Moreover, the inhibition at 0.2 µM in the series on HIV-IIIb (setting [2]) was 87%.
For `CC(C)(O)C#Cc1ccc(-c2ccc(F)c(C(N)=O)c2)c([C@H](Cc2cc(F)cc(F)c2)NC(=O)Cn2nc(C(F)(F)F)c3c2C(F)(F)[C@@H]2C[C@H]32)n1` [Compound 18, reference compound], in the series on HIV-IIIb (setting [3]), the inhibition at 0.2 µM was found to be 96%. In the series on HIV-IIIb (setting [4]), the inhibition at 2 µM worked out at 96%.
In the case of `O=C(Cc1c[nH]c2ccc(O)cc12)N[C@@H](Cc1cc(F)cc(F)c1)c1ncccc1C#CC1CC1` [Compound 53, reference compound], in the series on HIV-IIIb (setting [3]), the inhibition at 0.2 µM stood at 0%. Further, the inhibition at 2 µM with HIV-IIIb (setting [4]) worked out at 33%.
On to `Cn1nc(NS(C)(=O)=O)c2c(Cl)ccc(-c3ccc(C#CC4(O)CC(F)(F)C4)nc3[C@H](Cc3cc(F)cc(F)c3)NC(=O)Cn3nc(C(F)F)c4c3C(F)(F)[C@@H]3C[C@H]43)c21` [Compound 95E, N—((S)-1-(3-(4-chloro-1-methyl-3-(methylsulfonamido)-1H-indazol-7-yl)-6-((3,3-difluoro-1-hydroxycyclobutyl)ethynyl)pyridin-2-yl)-2-(3,5-difluorophenyl)ethyl)-2-((3bS,4aR)-3-(difluoromethyl)-5,5-difluoro-3b,4,4a,5-tetrahydro-1H-cyclopropa[3,4]cyclopenta[1,2-c]pyrazol-1-yl)acetamide], for which the inhibition at 0.2 µM with HIV-IIIb (setting [5]) stood at 96%.
